Our source for the Ki values is ChEMBL document CHEMBL1133145, “Novel photoreactive cinnamic acid analogues to elucidate phenylalanine ammonia-lyase” (Bioorg Med Chem Lett, 2000).

A short description of the test: Inhibitory activity against Phenylalanine Ammonia-lyase (PAL).

Molecule `O=C(O)/C=C/c1ccc(C2(C(F)(F)F)N=N2)cc1OCCOCCOCCNC(=O)CCCC[C@@H]1SCC2NC(=O)NC21` (some centres not stated) gave a Ki of 520 µM.

With `COc1cc(C2(C(F)(F)F)N=N2)ccc1/C=C/C(=O)O`, the inhibitory constant (Ki) was 240 µM.

The Ki is a dissociation constant, usually derived from enzyme kinetics or from competition with a known ligand. A low value points to tighter binding.
